Source: PubChem BioAssay AID2060901 (Molecular Pharmacology Branch, DTP, NCI, 2025)

Test system: 422866-222-R5-J1-PDC complex spheroids viability
Assay: Anticancer human tumor 422866-222-R5-J1-PDC patient-derived pancreatic adenocarcinoma cell line growth inhibition [RAS]
Settings: for IC50: curve of first compound; for viability, T/C: stronger effect = lower value
Method in brief: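 Tumour cells grown as complex spheroids with HUVEC endothelial cells and mesenchymal stem cells, treated with RAS pathway inhibitor combinations. Each agent spans half-log steps from near clinical Cmax, or 10 microM where Cmax is unknown.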

[1] = second compound 0.00316 µM, first compound 0.0316 µM
[2] = second compound 0.00316 µM, first compound 0.1 µM
[3] = second compound 0.00316 µM, first compound 0.316 µM
[4] = second compound 0.00316 µM, first compound 1 µM
[5] = second compound 0.01 µM, first compound 0.0316 µM
[6] = second compound 0.01 µM, first compound 0.1 µM
[7] = second compound 0.01 µM, first compound 0.316 µM
[8] = second compound 0.01 µM, first compound 1 µM
[9] = second compound 0.0316 µM, first compound 0.0316 µM
[10] = second compound 0.0316 µM, first compound 0.1 µM
[11] = second compound 0.0316 µM, first compound 0.316 µM
[12] = second compound 0.0316 µM, first compound 1 µM
[13] = second compound 0.1 µM, first compound 0.0316 µM
[14] = second compound 0.1 µM, first compound 0.1 µM
[15] = second compound 0.1 µM, first compound 0.316 µM
[16] = second compound 0.1 µM, first compound 1 µM
[17] = second compound 0.316 µM, first compound 0.0316 µM
[18] = second compound 0.316 µM, first compound 0.1 µM
[19] = second compound 0.316 µM, first compound 0.316 µM
[20] = second compound 0.316 µM, first compound 1 µM
[21] = second compound 1 µM, first compound 0.0316 µM
[22] = second compound 1 µM, first compound 0.1 µM
[23] = second compound 1 µM, first compound 0.316 µM
[24] = second compound 1 µM, first compound 1 µM
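Also: spheroids exposed to compounds for 7 days.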
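For viability, T/C in this document: 100% = DMSO vehicle control viability.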

CC(Nc1ccc2c(c1)OCCn1cc(N3C(=O)OCC3C(F)F)nc1-2)C(N)=O (stereo unspecified) + C=CC(=O)N1CCN(c2nc(OCC3CCCN3C)nc3c(F)c(-c4nc(N)cc(C)c4C(F)(F)F)c(Cl)cc23)C(C)C1
IC50 (second compound 0.00316 µM): < 31.6 nM | IC50 (second compound 0.01 µM): < 31.6 nM | IC50 (second compound 0.0316 µM): < 31.6 nM | IC50 (second compound 0.1 µM): < 31.6 nM | IC50 (second compound 0.316 µM): < 31.6 nM | IC50 (second compound 1 µM): < 31.6 nM | viability, T/C [1]: 20.8% | viability, T/C [2]: 19.9% | viability, T/C [3]: 12.6% | viability, T/C [4]: 11% | viability, T/C (second compound 0.00316 µM, first compound 3.16 µM): 7.97% | viability, T/C (second compound 0.00316 µM, first compound 10 µM): 7.01% | viability, T/C [5]: 19.1% | viability, T/C [6]: 18% | viability, T/C [7]: 13.5% | viability, T/C [8]: 6.65% | viability, T/C (second compound 0.01 µM, first compound 3.16 µM): 7.17% | viability, T/C (second compound 0.01 µM, first compound 10 µM): 4.82% | viability, T/C [9]: 24.5% | viability, T/C [10]: 14.3% | viability, T/C [11]: 9.64% | viability, T/C [12]: 7.15% | viability, T/C (second compound 0.0316 µM, first compound 3.16 µM): 5.78% | viability, T/C (second compound 0.0316 µM, first compound 10 µM): 4.99% | viability, T/C [13]: 14.6% | viability, T/C [14]: 10.9% | viability, T/C [15]: 9.29% | viability, T/C [16]: 8.93% | viability, T/C (second compound 0.1 µM, first compound 3.16 µM): 5.79% | viability, T/C (second compound 0.1 µM, first compound 10 µM): 5.64% | viability, T/C [17]: 18.3% | viability, T/C [18]: 11% | viability, T/C [19]: 9.82% | viability, T/C [20]: 6.95% | viability, T/C (second compound 0.316 µM, first compound 3.16 µM): 6.91% | viability, T/C (second compound 0.316 µM, first compound 10 µM): 7.16% | viability, T/C [21]: 16.5% | viability, T/C [22]: 15.8% | viability, T/C [23]: 9.93% | viability, T/C [24]: 7.52% | viability, T/C (second compound 1 µM, first compound 3.16 µM): 6.84% | viability, T/C (second compound 1 µM, first compound 10 µM): 7.05%

CC(=O)OC12COC1CC(O)C1(C)C(=O)C(O)C3=C(C)C(OC(=O)C(O)C(NC(=O)OC(C)(C)C)c4ccccc4)CC(O)(C(OC(=O)c4ccccc4)C21)C3(C)C (stereo unspecified) + CCn1c(-c2cc(N3CCN(C)CC3)cnc2C(C)OC)c2c3cc(ccc31)-c1csc(n1)CC(NC(=O)C1CC1C)C(=O)N1CCCC(N1)C(=O)OCC(C)(C)C2
IC50 (second compound 0.000949 µM): < 31.6 nM | IC50 (second compound 0.003 µM): < 31.6 nM | IC50 (second compound 0.00949 µM): < 31.6 nM | IC50 (second compound 0.03 µM): < 31.6 nM | IC50 (second compound 0.0949 µM): < 31.6 nM | IC50 (second compound 0.3 µM): < 31.6 nM | viability, T/C (second compound 0.000949 µM, first compound 0.0316 µM): 23.3% | viability, T/C (second compound 0.000949 µM, first compound 0.1 µM): 25.6% | viability, T/C (second compound 0.000949 µM, first compound 0.316 µM): 26.9% | viability, T/C (second compound 0.000949 µM, first compound 1 µM): 31.8% | viability, T/C (second compound 0.000949 µM, first compound 3.16 µM): 29.4% | viability, T/C (second compound 0.000949 µM, first compound 10 µM): 23.2% | viability, T/C (second compound 0.003 µM, first compound 0.0316 µM): 18.8% | viability, T/C (second compound 0.003 µM, first compound 0.1 µM): 19.6% | viability, T/C (second compound 0.003 µM, first compound 0.316 µM): 18.6% | viability, T/C (second compound 0.003 µM, first compound 1 µM): 20.6% | viability, T/C (second compound 0.003 µM, first compound 3.16 µM): 21.5% | viability, T/C (second compound 0.003 µM, first compound 10 µM): 20.5% | viability, T/C (second compound 0.00949 µM, first compound 0.0316 µM): 14.5% | viability, T/C (second compound 0.00949 µM, first compound 0.1 µM): 15.8% | viability, T/C (second compound 0.00949 µM, first compound 0.316 µM): 16.4% | viability, T/C (second compound 0.00949 µM, first compound 1 µM): 17.7% | viability, T/C (second compound 0.00949 µM, first compound 3.16 µM): 17.3% | viability, T/C (second compound 0.00949 µM, first compound 10 µM): 18.3% | viability, T/C (second compound 0.03 µM, first compound 0.0316 µM): 16.3% | viability, T/C (second compound 0.03 µM, first compound 0.1 µM): 18.6% | viability, T/C (second compound 0.03 µM, first compound 0.316 µM): 16.1% | viability, T/C (second compound 0.03 µM, first compound 1 µM): 17% | viability, T/C (second compound 0.03 µM, first compound 3.16 µM): 16.9% | viability, T/C (second compound 0.03 µM, first compound 10 µM): 19.4% | viability, T/C (second compound 0.0949 µM, first compound 0.0316 µM): 17.9% | viability, T/C (second compound 0.0949 µM, first compound 0.1 µM): 16.5% | viability, T/C (second compound 0.0949 µM, first compound 0.316 µM): 18.7% | viability, T/C (second compound 0.0949 µM, first compound 1 µM): 17.8% | viability, T/C (second compound 0.0949 µM, first compound 3.16 µM): 17% | viability, T/C (second compound 0.0949 µM, first compound 10 µM): 22.1% | viability, T/C (second compound 0.3 µM, first compound 0.0316 µM): 16.7% | viability, T/C (second compound 0.3 µM, first compound 0.1 µM): 17.1% | viability, T/C (second compound 0.3 µM, first compound 0.316 µM): 18.4% | viability, T/C (second compound 0.3 µM, first compound 1 µM): 17.8% | viability, T/C (second compound 0.3 µM, first compound 3.16 µM): 19.9% | viability, T/C (second compound 0.3 µM, first compound 10 µM): 21.5%

C=CC(=O)Nc1cc(Nc2nccc(-c3cn(C)c4ccccc34)n2)c(OC)cc1N(C)CCN(C)C + C=CC(=O)N1CCN(c2nc(OCC3CCCN3C)nc3c(F)c(-c4nc(N)cc(C)c4C(F)(F)F)c(Cl)cc23)C(C)C1
IC50 (second compound 0.00316 µM): < 3.16 nM | IC50 (second compound 0.01 µM): < 3.16 nM | IC50 (second compound 0.0316 µM): < 3.16 nM | IC50 (second compound 0.1 µM): < 3.16 nM | IC50 (second compound 0.316 µM): < 3.16 nM | IC50 (second compound 1 µM): < 3.16 nM | viability, T/C (second compound 0.00316 µM, first compound 0.00316 µM): 26.3% | viability, T/C (second compound 0.00316 µM, first compound 0.01 µM): 28.2% | viability, T/C [1]: 29% | viability, T/C [2]: 28% | viability, T/C [3]: 18.5% | viability, T/C [4]: 12.4% | viability, T/C (second compound 0.01 µM, first compound 0.00316 µM): 34.1% | viability, T/C (second compound 0.01 µM, first compound 0.01 µM): 21.1% | viability, T/C [5]: 20.5% | viability, T/C [6]: 19.8% | viability, T/C [7]: 17.3% | viability, T/C [8]: 12.3% | viability, T/C (second compound 0.0316 µM, first compound 0.00316 µM): 33.4% | viability, T/C (second compound 0.0316 µM, first compound 0.01 µM): 26.3% | viability, T/C [9]: 21.5% | viability, T/C [10]: 16.5% | viability, T/C [11]: 17% | viability, T/C [12]: 12.2% | viability, T/C (second compound 0.1 µM, first compound 0.00316 µM): 22.8% | viability, T/C (second compound 0.1 µM, first compound 0.01 µM): 21.9% | viability, T/C [13]: 17.3% | viability, T/C [14]: 17.6% | viability, T/C [15]: 16.6% | viability, T/C [16]: 11.9% | viability, T/C (second compound 0.316 µM, first compound 0.00316 µM): 19.7% | viability, T/C (second compound 0.316 µM, first compound 0.01 µM): 21.4% | viability, T/C [17]: 20% | viability, T/C [18]: 21.8% | viability, T/C [19]: 18.1% | viability, T/C [20]: 14.2% | viability, T/C (second compound 1 µM, first compound 0.00316 µM): 20.5% | viability, T/C (second compound 1 µM, first compound 0.01 µM): 20.8% | viability, T/C [21]: 22.7% | viability, T/C [22]: 20.9% | viability, T/C [23]: 18.6% | viability, T/C [24]: 12.4%
